We go through 20 compounds from US20260102383A1, “LPAR1 Inhibitors” (AbbVie Inc., priority 2024, published 2026).

SMILES strings stand for the structures.

T1 sequence (Q92633 whole entry): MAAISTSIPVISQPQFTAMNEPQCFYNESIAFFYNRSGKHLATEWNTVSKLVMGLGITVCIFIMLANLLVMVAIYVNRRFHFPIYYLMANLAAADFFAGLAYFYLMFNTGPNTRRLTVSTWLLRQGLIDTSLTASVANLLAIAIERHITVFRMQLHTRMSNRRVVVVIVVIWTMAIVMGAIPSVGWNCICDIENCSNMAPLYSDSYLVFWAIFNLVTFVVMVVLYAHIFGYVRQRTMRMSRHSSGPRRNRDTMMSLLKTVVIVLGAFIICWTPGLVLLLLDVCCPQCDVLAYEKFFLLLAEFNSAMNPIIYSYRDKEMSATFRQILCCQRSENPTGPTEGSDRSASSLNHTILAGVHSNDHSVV

The assay has as its target T1, human LPAR1 (Homo sapiens, UniProt Q92633).
T1 construct: host or cells: TangoEDG2-bla U2OS cells
Description: Arrestin assay (Arrestin Reporter EDG2-bla U2OS), inhibition of LPA-stimulated signal. It counts as cell-based. The conditions noted are these: TangoEDG2-bla U2OS cells expressing human LPAR1; 0.25 μM LPA; read-out: Arrestin Reporter EDG2-bla U2OS Human Merged IC50. As for the experimental part:
The inhibitory activity of compounds 15, 62, 77, 84 and 169 against LPAR1 was measured using an Arrestin assay in U2OS cells expressing human LPAR1.
FreeStyle media was warmed in a 37° C. water bath. Cryo-preserved vial(s) of TangoEDG2-bla U2OS cells were rapidly thawed in a 37° C. water bath. The thawed cells were added to FreeStyle media and cells were pelleted at 300×g for 5 minutes. The supernatant was aspirated, and cells were resuspended in FreeStyle media. Cell density was adjusted to 0.25×10^6 cells/mL. Cells (1×10^4 in 40 μL) were added to each well of Greiner 384 well black cell plate(s). Cell plate(s) were placed in a humidified 37° C./5% CO2 incubator for 18-20 hours. Dilutions of test compound were prepared at 6× final concentration; 12-point, 3-fold dilutions using HH Buffer (1×HBSS plus 20 mM HEPES). The 6× test compound was then added to the cell plate(s) at 10 μL/well. The final concentration ranged from 10 μM to 0.00006 μM. Cell plate(s) were incubated in a humidified 37° C./5% CO2 incubator for 1 hour. During the incubation, 6×LPA was prepared at 1.5 μM in 0.1% BSA HH Buffer. After the 1-hour incubation of test compound with cells, the LPA was added to the cell plate(s) at 10 μL/well (final LPA concentration of 0.25 μM). Cell plate(s) were returned to a humidified 37° C./5% CO2 incubator for 3 hours. The Development solution was made up per the LiveBLAzerFRET B/G kit protocol. The Development solution was added to the cell plate(s) at 10 μL/well. Cell plates were incubated in the dark at room temperature for 2 hours. Plate(s) were read on an Envision Plate Reader (Perkin Elmer) to read fluorescence; excitation at 409 nm with emission at 460 nm and 530 nm. Raw Data for analysis is the ratio of emission at 460 nm divided by emission 530 nm. The formula used to determine % Inhibition is as follows (1−(Raw Data−Low Average)/(High Average−Low Average))*100. Percent Inhibition was plotted to determine IC50 value with GraphPad Prism 9.5.0 software using Variable slope 4-parameter curve fit analysis.
Additional compounds of the present disclosure were synthesized in a manner similar to the compounds described above and understood by a person of ordinary skill in the art. The inhibitory activity of the compounds of the present disclosure against LPAR1 was measured using the above-referenced Arrestin Assay protocol.
Usually IC50 stands for the concentration at which inhibition is half-maximal. With `COc1ccc([C@@H](CN2CCC(C(=O)Nc3ccc(Cl)cc3OC(F)F)(n3nccc3C(C)C)CC2)C(=O)O)cc1` [Compound 29, (2S)-3-[4-[[4-chloro-2-(difluoromethoxy)phenyl]carbamoyl]-4-(5-isopropylpyrazol-1-yl)-1-piperidyl]-2-(4-methoxyphenyl) propanoic acid], the IC50 amounted to 4.75 nM.

As to `CC(C)c1ccnn1C1(C(=O)Nc2ccc(Cl)cc2OC(F)F)CCN(CC2(C(=O)O)CCCCO2)CC1` (centres unmarked) [Compound 30, 2-[[4-[[4-chloro-2-(difluoromethoxy)phenyl]carbamoyl]-4-(5-isopropylpyrazol-1-yl)-1-piperidyl]methyl] tetrahydropyran-2-carboxylic acid], the half-inhibitory concentration (IC50) came to 12.6 nM. In the case of `CC(C)c1ccnn1C1(C(=O)Nc2ccc(Cl)cc2OC(F)F)CCN(CC2(C(=O)O)CC3(CCC3)C2)CC1` [Compound 31, 2-[[4-[[4-chloro-2-(difluoromethoxy)phenyl]carbamoyl]-4-(5-isopropylpyrazol-1-yl)-1-piperidyl]methyl]spiro[3.3] heptane-2-carboxylic acid], the IC50 was 6.55 nM. To `COc1cccc([C@@H](CN2CCC(C(=O)Nc3ccc(Cl)cc3OC(F)F)(n3nccc3C(C)C)CC2)C(=O)O)c1` [Compound 33, (2S)-3-[4-[[4-chloro-2-(difluoromethoxy)phenyl]carbamoyl]-4-(5-isopropylpyrazol-1-yl)-1-piperidyl]-2-(3-methoxyphenyl)propanoic acid] belongs 5.13 nM; to `CC(C)c1ccnn1C1(C(=O)Nc2ccc(Cl)cc2OC(F)F)CCN(CC2(C(=O)O)CCC(O)CC2)CC1` (centres unmarked) [Compound 34, 1-[[4-[[4-chloro-2-(difluoromethoxy)phenyl]carbamoyl]-4-(5-isopropylpyrazol-1-yl)-1-piperidyl]methyl]-4-hydroxy-cyclohexanecarboxylic acid], 33.3 nM; to `CC1(C)CCc2cnn(C3(C(=O)Nc4ccc(Cl)cc4OC(F)F)CCN(CC4(C(=O)O)CCOCC4)CC3)c21` [Compound 35, 4-[[4-[[4-chloro-2-(difluoromethoxy)phenyl]carbamoyl]-4-(6,6-dimethyl-4,5-dihydrocyclopenta[c]pyrazol-1-yl)-1-piperidyl]methyl]tetrahydropyran-4-carboxylic acid], 43.6 nM. The same measure for `CC(C)c1ccnn1C1(C(=O)Nc2ccc(Cl)cc2OC(F)F)CCN(Cc2cccc(C(=O)O)n2)CC1` [Compound 36, 6-[[4-[[4-chloro-2-(difluoromethoxy)phenyl]carbamoyl]-4-(5-isopropylpyrazol-1-yl)-1-piperidyl]methyl]pyridine-2-carboxylic acid]: 55.3 nM; for `CC(C)c1ccnn1C1(C(=O)Nc2ccc(Cl)cc2OC(F)F)CCN(Cc2nc(C(=O)O)cs2)CC1` [Compound 37, 2-[[4-[[4-chloro-2-(difluoromethoxy)phenyl]carbamoyl]-4-(5-isopropylpyrazol-1-yl)-1-piperidyl]methyl]thiazole-4-carboxylic acid]: 14.6 nM. The same measure for `CC(C)c1ccnn1C1(C(=O)Nc2ccc(Cl)cc2OC(F)F)CCN(CC2(C(=O)O)CC3(COC3)C2)CC1` [Compound 40, 6-[[4-[[4-chloro-2-(difluoromethoxy)phenyl]carbamoyl]-4-(5-isopropylpyrazol-1-yl)-1-piperidyl]methyl]-2-oxaspiro[3.3]heptane-6-carboxylic acid]: 22.5 nM; for `CCC(=O)N1CCC(CN2CCC(C(=O)Nc3ccc(Cl)cc3OC(F)F)(n3nccc3C(C)C)CC2)(C(=O)O)CC1` [Compound 41, 4-[[4-[[4-chloro-2-(difluoromethoxy)phenyl]carbamoyl]-4-(5-isopropylpyrazol-1-yl)-1-piperidyl]methyl]-1-propanoyl-piperidine-4-carboxylic acid]: 22.8 nM; for `CC(C)c1ccnn1C1(C(=O)Nc2ccc(Cl)cc2OC(F)F)CCN(CC2(C(=O)O)CCCCC2)CC1` [Compound 42, 1-[[4-[[4-chloro-2-(difluoromethoxy)phenyl]carbamoyl]-4-(5-isopropylpyrazol-1-yl)-1-piperidyl]methyl]cyclohexanecarboxylic acid]: 19.1 nM.

Consider `CC(C)c1ccnn1C1(C(=O)Nc2ccc(Cl)cc2OC(F)F)CCN(CC2(C(=O)O)CCN(C(=O)C3CC3)CC2)CC1` [Compound 43, 4-[[4-[[4-chloro-2-(difluoromethoxy)phenyl]carbamoyl]-4-(5-isopropylpyrazol-1-yl)-1-piperidyl]methyl]-1-(cyclopropanecarbonyl) piperidine-4-carboxylic acid], for which the IC50 turned out to be 27.6 nM.

In the case of `CC(C)c1ccnn1C1(C(=O)Nc2ccc(Cl)cc2OC(F)F)CCN(CC2(C(=O)O)CCN(C(=O)C3CCC3)CC2)CC1` [Compound 44, 4-[[4-[[4-chloro-2-(difluoromethoxy)phenyl]carbamoyl]-4-(5-isopropylpyrazol-1-yl)-1-piperidyl]methyl]-1-(cyclobutanecarbonyl) piperidine-4-carboxylic acid], the IC50 was 30.5 nM. On to `CC(C)c1ccnn1C1(C(=O)Nc2ccc(Cl)cc2OC(F)F)CCN(CC2(C(=O)O)CCC2)CC1` [Compound 45, 1-[[4-[[4-chloro-2-(difluoromethoxy)phenyl]carbamoyl]-4-(5-isopropylpyrazol-1-yl)-1-piperidyl]methyl]cyclobutanecarboxylic acid], for which the IC50 came to 17.6 nM. Regarding `CC(C)c1ccnn1C1(C(=O)Nc2ccc(Cl)cc2OC(F)F)CCN(C2CC(C(=O)O)C2)CC1` (centres unmarked) [Compound 46, 3-[4-[[4-chloro-2-(difluoromethoxy)phenyl]carbamoyl]-4-(5-isopropylpyrazol-1-yl)-1-piperidyl] cyclobutanecarboxylic acid], the IC50 was determined as 62.7 nM. To `CC(C)c1ccnn1C1(C(=O)Nc2ccc(Cl)cc2OC(F)F)CCN(CC2(C(=O)O)CCN(C(=O)CC3CCCC3)CC2)CC1` [Compound 47, 4-[[4-[[4-chloro-2-(difluoromethoxy)phenyl]carbamoyl]-4(5-isopropylpyrazol-1-yl)-1-piperidyl]methyl]-1-(2-cyclopentylacetyl) piperidine-4-carboxylic acid] belongs 14.8 nM; to `CC(C)c1ccnn1C1(C(=O)Nc2ccc(Cl)cc2OC(F)F)CCN(CC2(C(=O)O)CCN(C(=O)CC3CC3)CC2)CC1` [Compound 48], 44 nM; to `CC(C)c1ccnn1C1(C(=O)Nc2ccc(Cl)cc2OC(F)F)CCN(CC2(CC(=O)O)CC2)CC1` [Compound 49, 2-[1-[[4-[[4-chloro-2-(difluoromethoxy)phenyl]carbamoyl]-4-(5-isopropylpyrazol-1-yl)-1-piperidyl]methyl]cyclopropyl]acetic acid], 73.2 nM. The same measure for `COc1ccc(C(C)(CN2CCC(C(=O)Nc3ccc(Cl)cc3OC(F)F)(n3nccc3C(C)C)CC2)C(=O)O)cc1` (centres unmarked) [Compound 50, 3-[4-[[4-chloro-2-(difluoromethoxy)phenyl]carbamoyl]-4-(5-isopropylpyrazol-1-yl)-1-piperidyl]-2-(4-methoxyphenyl)-2-methyl-propanoic acid]: 64.1 nM. Take `CC(C)c1ccnn1C1(C(=O)Nc2ccc(Cl)cc2OC(F)F)CCN(CC2(CC(=O)O)CCOCC2)CC1` [Compound 51, 2-[4-[[4-[[4-chloro-2-(difluoromethoxy)phenyl]carbamoyl]-4-(5-isopropylpyrazol-1-yl)-1-piperidyl]methyl]tetrahydropyran-4-yl]acetic acid]: the IC50 was found to be 56.6 nM.
